Molecular target: Recombinant human LSD1 (Homo sapiens, UniProt O60341)
Test: LSD1 inhibition assay (HTRF LSD1 Histone H3K4 mono-demethylation assay, me1->me0)
Format: biochemical
Details: 20 nM recombinant human LSD1, 95 nM H3K4(me1) biotinylated peptide, 15 min preincubation, 60 min at 25° C., read-out: LSD1 inhibition IC50 (nM range)
Experimental: LSD1 biochemical activity was measured using the HTRF® LSD1 Histone H3K4 mono-demethylation assay (me1->me0). Briefly, the enzymatic buffer was prepared by addition of 50 mM Tris-HCl (Sigma cat #T2663-IL), 50 mM NaCl (ThermoFisher cat #AM9759) and 0.01% Tween 20 (ThermoFisher cat #J20605.AP) in distilled water (final pH 8.5). This buffer was supplemented with 10 μM FAD (Fisher Scientific cat #11411838) and 1 mM DTT (Sigma cat #D0632). For the assay, H3K4(me1) biotinylated peptide substrate (Anaspec, cat #64355) was added to provide a final assay concentration of 95 nM. The streptavidin-XL665 (Cisbio cat #610SAXLA) and H3K4 me0-Eu(K) antibody-cryptate (Cisbio, cat #61 KAOKAD) detection reagents were mixed according to the manufacturer's instructions. Test compounds were diluted in DMSO in a series of 10 semi-log step doses; 10 nL of each compound dose were dispensed in 384 well plates. Recombinant human LSD1 was diluted into enzymatic buffer to provide a final assay concentration of 20 nM and added to the tested compounds for 15 minutes. The reaction was started by addition of the substrate and incubated at 25° C. for 60 minutes. The detection reagents were added, and the plate was incubated in the dark for 90 minutes. Fluorescence was measured on an Envision 2103 plate reader with optical setup for […] in the HTRF mode. The ratio of acceptor and donor emission signals was calculated for each well. Percent inhibition values were calculated from the HTRF ratios at different doses and fitted to a 4-parameter logistic curve to determine IC50 values. […]

| IC50 [nM] | SMILES |
| --- | --- |
| 25 to 100 | Cn1nccc1-c1c(CC2CNCCO2)cccc1-c1ccc(C#N)c(F)c1 (centres unmarked) [Example 156, 3-fluoro-2′-(1-methyl-1H-pyrazol-5-yl)-3′-[(morpholin-2-yl)methyl]-[1,1′-biphenyl]-4-carbonitrile] |
| 25 to 100 | Cn1nc2ccc(-c3ccc(CC4CNCCO4)cc3-c3ccc(C#N)c(F)c3)cc2c1Cl (centres unmarked) [Example 91, 2′-(3-chloro-2-methyl-2H-indazol-5-yl)-3-fluoro-5′-[(morpholin-2-yl)methyl]-[1,1′-biphenyl]-4-carbonitrile] |
| 25 to 100 | CC1(N)CCN(Cc2cccc(-c3ccc(C#N)c(F)c3)c2C2CC2)CC1 [Example 205, 3'-[(4-amino-4-methylpiperidin-1-yl)methyl]-2'-cyclopropyl-3-fluoro-[1,1'-biphenyl]-4-carbonitrile] |
| 100 to 1000 | N#Cc1ccc(-c2cc(CC3CNCCO3)ccc2N2CCC(c3ncccn3)CC2)cc1F (centres unmarked) [Example 59, 3-fluoro-5′-[(morpholin-2-yl)methyl]-2′-[4-(pyrimidin-2-yl)piperidin-1-yl]-[1,1′-biphenyl]-4-carbonitrile] |
| 10 to 25 | CC1(C)CNCC(Cc2cccc(-c3ccc(C#N)cc3)c2-c2cncs2)O1 (centres unmarked) [Example 103, 3′-[(6,6-dimethylmorpholin-2-yl)methyl]-2′-(1,3-thiazol-5-yl)-[1,1′-biphenyl]-4-carbonitrile] |
| 25 to 100 | Cc1cc(CN2CCC3(CCN3C)C2)c(Cl)c(-c2ccc(C#N)c(F)c2)c1 (centres unmarked) [Compound 240] |
| 100 to 1000 | CC1(F)CCN(c2ccc(CC3CNCCO3)cc2-c2ccc(C#N)c(F)c2)CC1 (centres unmarked) [Example 99, 3-fluoro-2′-(4-fluoro-4-methylpiperidin-1-yl)-5′-[(morpholin-2-yl)methyl]-[1,1′-biphenyl]-4-carbonitrile] |
| 10 to 25 | N#Cc1ccc(-c2cccc(N3CCC(N)CC3)c2-c2ccns2)cc1F [Example 110, 3'-(4-aminopiperidin-1-yl)-3-fluoro-2'-(1,2-thiazol-5-yl)-[1,1'-biphenyl]-4-carbonitrile] |
| 10 to 25 | N#Cc1ccc(-c2cccc(CN3C[C@@H]4C[C@@H](N)[C@H]3C4)c2-c2cncs2)cc1F [Example 237, 3'-{[(1R,4R,6R)-6-amino-2-azabicyclo[2.2.1]heptan-2-yl]methyl}-3-fluoro-2'-(1,3-thiazol-5-yl)-[1,1'-biphenyl]-4-carbonitrile] |
| < 10 | N#Cc1ccc(-c2cccc(C[C@@H]3CNCCO3)c2-c2ccns2)cc1F [Example 28, 3-fluoro-3′-{[(2R)-morpholin-2-yl]methyl}-2′-(1,2-thiazol-5-yl)-[1,1′-biphenyl]-4-carbonitrile] |
| 10 to 25 | N#Cc1ccc(-c2cc(C3CC3)cc(CC3CNCCO3)c2-c2cncs2)cc1F (centres unmarked) [Example 57, 5′-cyclopropyl-3-fluoro-3′-[(morpholin-2-yl)methyl]-2′-(1,3-thiazol-5-yl)-[1,1′-biphenyl]-4-carbonitrile] |
| 100 to 1000 | N#Cc1ccc(-c2cc(CC3CNCCO3)ccc2N2CC3(CCOC3)C2)cc1F (centres unmarked) [Example 127] |
| > 1000 | N#Cc1ccc(-c2cccc(CN3CCNCC(F)(F)C3)c2Cl)cc1F [Example 338, 2'-chloro-3'-[(6,6-difluoro-1,4-diazepan-1-yl)methyl]-3-fluoro-[1,1'-biphenyl]-4-carbonitrile] |
| 100 to 1000 | N#Cc1ccc(-c2cccc(CC3CNCCO3)c2N2CC(F)C2)cc1F (centres unmarked) [Example 40, 3-fluoro-2′-(3-fluoroazetidin-1-yl)-3′-[(morpholin-2-yl)methyl]-[1,1′-biphenyl]-4-carbonitrile] |
| 100 to 1000 | CC(C)C1(O)CN(c2ccc(CC3CNCCO3)cc2-c2ccc(C#N)c(F)c2)C1 (centres unmarked) [Example 122, 3-fluoro-2′-[3-hydroxy-3-(propan-2-yl)azetidin-1-yl]-5′-[(morpholin-2-yl)methyl]-[1,1′-biphenyl]-4-carbonitrile] |
| 100 to 1000 | N#Cc1ccc(-c2cc(CC3CNCCO3)ccc2N2CC(CO)C2)cc1F (centres unmarked) [Example 137, 3-fluoro-2′-[3-(hydroxymethyl)azetidin-1-yl]-5′-[(morpholin-2-yl)methyl]-[1,1′-biphenyl]-4-carbonitrile] |
| 10 to 25 | CC1(C)CN(Cc2cccc(-c3ccc(C#N)c(F)c3)c2-c2ccns2)CC1N (centres unmarked) [Example 198, 3'-[(4-amino-3,3-dimethylpyrrolidin-1-yl)methyl]-3-fluoro-2'-(1,2-thiazol-5-yl)-[1,1'-biphenyl]-4-carbonitrile] |
| 25 to 100 | N#Cc1ccc(-c2cccc(Cn3cc4c(n3)CNCC4)c2-c2cncs2)cc1F [Example 236, 3-fluoro-3'-({2H,4H,5H,6H,7H-pyrazolo[3,4-c]pyridin-2-yl}methyl)-2'-(1,3-thiazol-5-yl)-[1,1'-biphenyl]-4-carbonitrile] |
| 100 to 1000 | Cc1cc(CN2C[C@H]3C[C@@H]2CN3)c(C)c(-c2ccc(C#N)c(F)c2)c1 [Example 293, 3'-{[(1R,4R)-2,5-diazabicyclo[2.2.1]heptan-2-yl]methyl}-3-fluoro-2',5'-dimethyl-[1,1'-biphenyl]-4-carbonitrile] |
| 100 to 1000 | C[C@]1(N)CCN(Cc2c(F)ccc(-c3ccc(C#N)c(F)c3)c2Cl)C1 [Example 342, 3'-{[(3S)-3-amino-3-methylpyrrolidin-1-yl]methyl}-2'-chloro-3,4'-difluoro-[1,1'-biphenyl]-4-carbonitrile] |
| 25 to 100 | COCc1ccc(-c2ccc(CC3CNCCO3)cc2-c2ccc(C#N)c(F)c2)c(F)c1 (centres unmarked) [Example 68, 3-fluoro-2′-[2-fluoro-4-(methoxymethyl)phenyl]-5′-[(morpholin-2-yl)methyl]-[1,1′-biphenyl]-4-carbonitrile] |
| < 10 | N#Cc1ccc(-c2cccc(CN3C[C@]4(N)CC[C@H]3C4)c2-c2cnco2)cc1F [Example 335, 3'-{[(1S,4S)-4-amino-2-azabicyclo[2.2.1]heptan-2-yl]methyl}-3-fluoro-2'-(1,3-oxazol-5-yl)-[1,1'-biphenyl]-4-carbonitrile] |
| > 1000 | N#Cc1ccc(-c2cc(CC3CNCCO3)ccc2C2CCCC2)cc1 (centres unmarked) [Example 162, 2′-cyclopentyl-5′-[(morpholin-2-yl)methyl]-[1,1′-biphenyl]-4-carbonitrile] |
| 100 to 1000 | N#Cc1ccc(-c2cccc(CN3CCC4(CNC4)C3)c2Cl)cc1F [Example 341, 2'-chloro-3'-({2,6-diazaspiro[3.4]octan-6-yl}methyl)-3-fluoro-[1,1'-biphenyl]-4-carbonitrile] |
| 10 to 25 | CC(C)C1(O)CCN(c2ccc(CC3CNCCO3)cc2-c2ccc(C#N)c(F)c2)CC1 (centres unmarked) [Example 79, 3-fluoro-2′-[4-hydroxy-4-(propan-2-yl)piperidin-1-yl]-5′-[(morpholin-2-yl)methyl]-[1,1′-biphenyl]-4-carbonitrile] |

| SMILES | IC50 [nM] |
| --- | --- |
| COc1cnc(-c2ccc(CN3[C@@H]4CC[C@H]3[C@@H](N)C4)cc2-c2ccc(C#N)c(F)c2)cn1 (racemic) [Example 317, 5'-{[(1S,2S,4R)-2-amino-7-azabicyclo[2.2.1]heptan-7-yl]methyl}-3-fluoro-2'-(5-methoxypyrazin-2-yl)-[1,1'-biphenyl]-4-carbonitrile] | 10 to 25 |
| N#Cc1ccc(-c2ccc(F)c(CN3[C@@H]4CC[C@H]3[C@@H](N)C4)c2C2CC2)cc1F (racemic) [Example 181, N[C@@H]1C[C@@H]2CC[C@H]1N2Cc3c(F)ccc(c4ccc(C#N)c(F)c4)c3C5CC5] | 10 to 25 |
| N#Cc1ccc(-c2cc(CN3[C@@H]4CC[C@H]3[C@@H](N)C4)ccc2N2CC3(CC3)C2)cc1F (racemic) [Example 251, 5'-{[(1S,2S,4R)-2-amino-7-azabicyclo[2.2.1]heptan-7-yl]methyl}-2'-{5-azaspiro[2.3]hexan-5-yl}-3-fluoro-[1,1'-biphenyl]-4-carbonitrile] | 25 to 100 |
| N#Cc1ccc(-c2cccc(CN3C4CCC3CNC4)c2C2CC2)cc1F [Example 265, 2'-cyclopropyl-3'-({3,8-diazabicyclo[3.2.1]octan-8-yl}methyl)-3-fluoro-[1,1'-biphenyl]-4-carbonitrile] | 25 to 100 |
| N#Cc1ccc(-c2cc(CN3[C@@H]4CC[C@H]3[C@@H](N)C4)ccc2N2CCCCC2)cc1F (racemic) [Example 255, 5'-{[(1S,2S,4R)-2-amino-7-azabicyclo[2.2.1]heptan-7-yl]methyl}-3-fluoro-2'-(piperidin-1-yl)-[1,1'-biphenyl]-4-carbonitrile] | 10 to 25 |
| N#Cc1ccc(-c2cc(CN3[C@@H]4CC[C@H]3[C@@H](N)C4)ccc2OC2CCC2)cc1F (racemic) [Example 312, 5'-{[(1S,2S,4R)-2-amino-7-azabicyclo[2.2.1]heptan-7-yl]methyl}-2'-cyclobutoxy-3-fluoro-[1,1'-biphenyl]-4-carbonitrile] | 10 to 25 |
| COC1(C)CCN(c2ccc(CN3[C@@H]4CC[C@H]3[C@@H](N)C4)cc2-c2ccc(C#N)c(F)c2)CC1 (racemic) [Example 232, 5'-{[(1S,2S,4R)-2-amino-7-azabicyclo[2.2.1]heptan-7-yl]methyl}-3-fluoro-2'-(4-methoxy-4-methylpiperidin-1-yl)-[1,1'-biphenyl]-4-carbonitrile] | 10 to 25 |
